Reference: patent US20160235749A1, “MICRO-PARTICULATED NANOCAPSULES CONTAINING LOPINAVIR WITH ENHANCED ORAL BIOAVAILABILITY AND EFFICACY” (priority 2015, published 2016)
Values after ≈ are worked out from the molar mass of the structure shown. Where two headings read alike, the source gives them in different places.

Tests used:
[1] = Pharmacokinetic studies in rats (LPV plasma levels by LC-MS/MS); type: in vivo; conditions: male, Sprague-Dawley, rat
Method: Sprague-Dawley male rats weighing 270-300 g were used and were separated randomly into seven groups with 4-8 animals per group to evaluate the biofate of LPV in different formulations. The animals were housed in SPF conditions, fasted overnight (12-14 h prior to the experiment) with free access to water. The animals were given a dose of 10 mg/kg LPV with or without RTV, always at the same ratio as the Kaletra® administered orally, using gavage. The groups were orally administered according to the following experimental conditions: 1 ml of Kaletra® oral solution (LPV 80 mg/RTV 20 mg/ml) prepared by diluting the purchased commercial solution with 1:1:1 ethanol:propylene glycol:DDW to a concentration of LPV 3 mg/RTV 0.75 mg/ml; and microparticulate formulations, F[I]-F[III] prepared by dispersing the NCs embedded in MCPs in DDW to the final concentration of 40 mg/ml. Blood samples (400-500 μl) were withdrawn from the tail vein at 0, 0.5, 1, 2, 4, 8, 12 and 24 h. Saline solution was given to the animals after 30 min and then again after 3 h. The blood samples were collected in heparin containing tubes. The samples were immediately centrifuged at 10,000 rpm for 5 min, after which 200-300 μl of plasma samples were transferred to new tubes and stored at −80° C. until further analysis by LC-MS/MS as described below.
The blood samples were treated by protein precipitation in methanol, following 15 min centrifuge at 10,000 rpm. 25 ng of quinoxaline (QX) dissolved in methanol were added to each sample, as an internal standard. The supernatant layer was collected and the samples were injected into an LC-MS/MS device under the following conditions: using a Phenomenex Kenetex column (RP-C18, 50×2.1 mm, 2.6 μm, 100 A) in gradient mode; the mobile phase consisted of A=methanol/formic acid 99.9/0.1 and B=water/formic acid 99.9/0.1; the A:B ratio was 58:42 at t=0 min, during the first 1.5 min the ratio changed gradually to A:B 80:20 and remained steady until 2.1 min. […] The flow rate was maintained at 0.35 ml/min, and the column temperature was maintained at 35° C. LC-MS/MS analysis was performed with a thermo scientific Accela HPLC system coupled with a TSQ Quantum Access MAX detector in positive ionization mode. Detection and quantification were carried out by multiple-reaction monitoring with transitions from m/z 629.3 to 156 for LPV and from m/z 313.1 to 246 for QX. The tested samples were quantified against a calibration curve in the range of 0-100 ng/ml.
The change in LPV plasma concentrations following intravenous (i.v.) administration of LPV alone and combined with RTV in an aqueous solution and the pharmacokinetic (PK) profile of LPV following oral administration of various formulations is depicted in FIG. 10. […] The absolute bioavailability (F) of LPV at all dosage forms was calculated relative to the AUC (area under the curve) yielded by i.v. administration of LPV and RTV at the ratio of 4:1 (F=1.0) since the same combination of LPV and RTV, when administered orally, is considered the standard of PI care for HIV-linfected patients.

[2] = LPV solubility test in 0.1% Tween 80; type: physicochemical; conditions: 0.1% Tween 80 solution, aqueous with cosolvent or surfactant or cyclodextrin, thermodynamic from solid; 0.1% Tween 80, pH 7.4, 37° C., 3 h incubation
Method: A solubility test was performed prior to the in-vitro release profile experiment to ensure that sink conditions would prevail by adding 10 mg LPV to 10 ml of 0.1% Tween 80 pre-warmed to 37° C. in a beaker. The pH was adjusted to 7.4 and the Tween solution was kept at 37° C. and rotated at 150 rpm for 3 h. Then, 5 ml aliquots were taken and filtered using a 0.45 μm PVDF filter and diluted with methanol to a final dilution factor of 10.

[3] = Pharmacokinetic studies in rats (LPV plasma levels by LC-MS/MS); type: in vivo; conditions: male, Sprague-Dawley, rat, oral, 10 mg/kg, read-out: absolute bioavailability compared to i.v. LPV solution
[4] = LPV in-vitro release profile experiment; type: physicochemical; conditions: 0.1% Tween 80 release medium
Method: LPV in-vitro release kinetic experiments were carried out using the apparatus (VanKel VK7000 with a VK […] pump) comprised of six vessels containing 300 ml of 0.1% Tween 80 at 37° C. with USP paddles rotating at a speed of 50 rpm. The three formulations (F[I]-F[III]) were added to the different vessels at a LPV quantity equivalent to maintain sink conditions (10% of the pre-determined solubility). […] The samples were filtered using 0.45 μm PVDF filter and 500 μl from the filtrate was diluted in 500 μl methanol. These samples were comprised of free and encapsulated LPV, since LPV NCs diameter size is about 200 nm and the NCs can diffuse via 0.45 μm membrane pores. The remaining filtrate was then transferred to diafiltration membrane vivaspin 6 (MWCO 300,000 purchased from Sartorius Stedim Biotech) and centrifuged for 15 min at 4000 rpm. […] All samples were analyzed using HPLC. […] The graphs display both the total amount of LPV released from the MCPs, as free dissolved molecules and the LPV molecules still entrapped in the NCs, as detected following filtration of the dissolution samples through 0.45 μm PVDF filters (dimond-shaped points), as well as the free dissolved LPV molecules fraction only, as detected following a second filtration using 300,000 MW cut off vivaspin membranes which retained the NCs (square points). […]

[5] = plasma, rats, oral, 10 mg/kg LPV

## Cc1cccc(C)c1OCC(=O)N[C@@H](Cc1ccccc1)[C@@H](O)C[C@H](Cc1ccccc1)NC(=O)[C@H](C(C)C)N1CCCNC1=O [LPV, (2S)—N-[(2S,4S,5S)-5-[2-(2,6-dimethylphenoxy)acetamido]-4-hydroxy-1,6-diphenylhexan-2-yl]-3-methyl-2-(2-oxo-1,3-diazinan-1-yl)butanamide]
[1]; in vivo, po
  decrease in Cmax compared to Kaletra® oral solution: 3 fold
[1]; plasma, iv, rats, 10 mg/kg LPV
  AUC: 8000 ± 1220 ng·h/mL
  clearance: 21.1 mL/min/kg
  half-life: 1.2 ± 0.2 h
[1]; plasma, iv, rats, i.v., 10 mg/kg LPV, read-out: Cmax (extrapolated plasma concentration at T0)
  Cmax: 2780 ± 203 ng/mL
[1]; plasma, oral, 10 mg/kg, rats, oral, read-out: absolute bioavailability compared to LPV:RTV 4:1 i.v.
  bioavailability: 5%
[1]; [5]
  AUC: 1910 ± 324 ng·h/mL
  half-life: 4.8 ± 0.9 h
[1]; plasma, rats, oral, 10 mg/kg LPV, read-out: Cmax
  Cmax: 780 ± 246 ng/mL
[2]
  solubility at 3 h: 72.7 µg/mL (≈ 116 µM)
[3]
  bioavailability: 24%
[4]
  LPV solubility at pH 1.2: low solubility below HPLC detection limit
